Measured values taken from article PMC5577450, “An ancient FMRFamide-related peptide–receptor pair induces defence behaviour in a brachiopod larva” (Open Biology, 2017).

Experiments:
[1] = tested on: Terebratalia transversa larvae; test: Behavioural assay: full contraction / defence stance of larvae exposed to synthetic peptides; type: in vivo; details: for contraction reaction of larvae (in words): at 50 µmol l^−1 (maximum concentration cutoff); for necessary concentration to induce defense stance (full contraction): > 50 stands for 'no contraction at 50 µM'
Procedure: The reaction of larvae to synthetic peptides (GenScript) that were predicted from the prepropeptide sequence were tested and compared with the reactions to peptides with non-native modifications. Freely swimming larvae were exposed to different concentrations of peptides in 4-well and 6-well plates (1 ml and 5 ml total volume per well, respectively), and their reactions were observed under a stereomicroscope. To determine the efficiency of the native and modified peptides, the larvae were tested for the necessary minimum concentration at which they fully contracted and spread their chaetae, using 30–100 larvae in each test. To get an estimation of the peptide concentration that was necessary to induce a complete contraction, the larvae were initially exposed to 50 nmol l^−1 of the respective peptide and the concentration was then increased stepwise until the larvae fully contracted or a concentration of 50 µmol l^−1 was reached as an upper cutoff. […] To test the influence of the peptides on the vertical distribution of larvae in a water column, freely swimming larvae (50–100 per treatment) were exposed to peptides in transparent 4.5 ml cuvettes. About 60 s after addition of the peptides, the larvae were recorded with a digital camera (DMK 31AU03 camera, The Imaging Source) in a darkened box with artificial top-illumination. All experiments were repeated at least once with a different batch of larvae from another fertilization and the outcome was averaged. Control animals were exposed to DMSO only.

[2] = tested on: T. transversa FLRFamide receptor; test: Receptor deorphanization: luminescence response of transfected CHO-K1 cells; type: cell-based, Terebratalia transversa; details: fixed peptide concentration 1 µmol l^−1 (figure 4a)
T. transversa FLRFamide receptor, sequence (as listed by the source): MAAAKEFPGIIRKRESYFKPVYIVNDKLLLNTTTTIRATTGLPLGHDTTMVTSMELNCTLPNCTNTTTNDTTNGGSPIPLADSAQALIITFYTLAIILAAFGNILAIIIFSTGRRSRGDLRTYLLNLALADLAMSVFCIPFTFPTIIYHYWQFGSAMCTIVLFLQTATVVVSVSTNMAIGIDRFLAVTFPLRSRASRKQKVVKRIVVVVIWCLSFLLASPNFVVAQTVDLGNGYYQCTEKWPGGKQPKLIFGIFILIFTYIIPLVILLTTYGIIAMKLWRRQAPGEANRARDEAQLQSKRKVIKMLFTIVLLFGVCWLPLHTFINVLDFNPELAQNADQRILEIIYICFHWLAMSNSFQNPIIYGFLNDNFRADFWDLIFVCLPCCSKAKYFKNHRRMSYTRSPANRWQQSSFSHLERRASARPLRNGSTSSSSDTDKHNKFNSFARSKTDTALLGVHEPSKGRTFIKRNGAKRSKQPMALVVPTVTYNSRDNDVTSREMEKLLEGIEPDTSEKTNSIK
From the text: For the receptor deorphanization, the procedure was used as described by Bauknecht & Jékely: full-length open reading frames of the receptor candidate sequences were amplified by PCR from cDNA of mixed larval stages. The forward primers included a 5′ attachment consisting of a spacer, an EcoR1 or BamH1 restriction site and a Kozak sequence and the reverse primers included a 5′ attachment consisting of a spacer and a Not1 restriction site (see the electronic supplementary material for primer sequences). […] The luminescence response of the transfected cells was measured in a plate reader (BioTek Synergy Mx or Synergy H4, BioTek, Winooski, USA) over 45 s after addition of the neuropeptides. […] Dose–response curves were calculated using PRISM 6 (GraphPad, La Jolla, USA) and normalized against the upper plateau values (100% activation).
Figure 4. Luminescence response of T. transversa FLRFamide receptor expressing CHO-K1 cells to different peptides. (a) Relative luminescence of T. transversa FLRFamide receptor expressing cells after exposure to different peptides with a fixed concentration of 1 µmol l^−1. […] Luminescence values are given relative to maximum luminescence (max = 1). RLU relative luminescence.

[3] = tested on: late chaetous larvae of Novocrania anomala; test: Behavioural test of the orthologue peptide for a defence reaction; type: in vivo; details: no defence reaction even above this concentration
[4] = tested on: late chaetous larvae of P. dumerilii; test: as above; type: in vivo, Platynereis dumerilii; details: no defence reaction even above this concentration

Row | Substance | contraction reaction of larvae (in words) [1] | necessary concentration to induce defense stance (full contraction) ([1]; batch 1) [µM] | necessary concentration to induce defense stance (full contraction) ([1]; batch 2) [µM] | further results
1 | DFLRLamide [modified DFLRFamide with C-terminal leucine] | very weak contraction |  |  | luminescence response of FLRFamide receptor expressing CHO-K1 cells (in words) [2]: barely higher than the negative control
2 | AFLRLamide [modified AFLRFamide with C-terminal leucine] | no reaction at all |  |  | 
3 | YMRFamide [orthologue of AFLRFamide/DFLRFamide] |  | 10 | 15 | concentration inducing a defence reaction [3]: above 50 µmol l^−1
4 | FMRFamide [orthologue of AFLRFamide/DFLRFamide in P. dumerilii] |  |  |  | concentration inducing a defence reaction [4]: above 50 µmol l^−1
5 | AFLRWamide [modified AFLRFamide with amidated C-terminal tryptophan] |  | 20 | 20 | concentration triggering full contraction / defence stance (minimum necessary concentration) ([1]; cutoff 50 µmol l^−1): 20 µmol/L; reduction of effectiveness on changing the amidated C-terminal phenylalanine to an amidated tryptophan ([1]; relative to the corresponding Famide peptide): about 10 fold
